Source: patent publication US6335339B1, “Triazine antiviral compounds” (Scriptgen Pharmaceuticals, Inc., priority 1998, dated 2002)

System: HBV εRNA
Assay: εRNA/oligonucleotide hybridization inhibition assay with rRNA competitor
Assay type: binding, Hepatitis B virus
Conditions: for Specificity: ratio RRE+rRNA IC50/εRNA+rRNA IC50, max = inactive in RRE assay
Source text: One assay used in determining the activity of the compounds of the present invention is disclosed in copending U.S. patent application Ser. No. 08/709,342, filed Sep. 6, 1996, the disclosure of which is hereby incorporated herein by reference in its entirety. The assay detects the interaction between target RNA molecule and a test ligand by measuring the ligand's ability to inhibit hybridization between the RNA and a specific complementary oligonucleotide. In one embodiment, the target RNA is radiolabelled and the oligonucleotide is labeled with biotin; in this case, the extent of hybridization is determined by measuring the amount of radiolabeled RNA detected with a streptavidin/biotin-based capture system.
Concentrations of test compounds of between about 0.1 μM and about 200 μM are assayed for inhibition using radiolabeled εRNA in the absence or presence of a large excess of an unlabeled non-specific RNA competitor (such as, e.g., ribosomal RNA, rRNA). Compounds that bind εRNA non-specifically are competitively displaced by the rRNA, resulting in reduced or no inhibition of hybridization between the radiolabeled εRNA and the biotinylated oligonucleotide. Conversely, the inhibitory activity of compounds that specifically bind εRNA is not affected by the presence of the competitor rRNA.
The high throughput assays were performed in 96-well plates containing eighty drugs (5 μl, 60 μg/ml in DMSO) distributed one per well in columns 2-6 and 8-12 of the 8×12 96-well array. The remaining 16 wells in columns 1 and 7 were filled with 5 μl DMSO to serve as the control reactions. 45 μl of reaction mixture containing buffer, salts and radiolabeled target RNA were delivered on each well of the compound-containing plates to yield a 50 μl mixture containing 50 mM Tris-HCl, pH 7.5, 200 mM KCl, 5 mM MgCl2, 5 mM DTT, 6 μg/ml test compound, and 25 nM [^32 P]-labeled εRNA. The reaction was started by addition of the biotinylated oligonucleotide, 262.104 A (5 μl) to a final concentration of 100 nM. The reaction was incubated at 25° C. for 60 minutes, and then 5 μl of 0.3 mg/ml SAAP (streptavidin alkaline phosphatase conjugate, Pierce, Rockford, Ill.) was added. The reaction was incubated for an additional 30 minutes at 25° C. and filtered through 96-well format HATF nitrocellulose filters (Millipore, Bedford, Mass.) using a multiscreen vacuum manifold (Millipore, Bedford, Mass.). Subsequently, 300 μl of wash buffer (50 mM Tris-HCl, pH 7.5, 200 mM KCl) was filtered through to wash the filters. The filters were dried and supplemented with 20 μl scintillation fluid (Super Mix, Wallac Oy, Turku, Finland). The amount of hybrids formed was determined by scintillation counting of the radiolabeled εRNA retained on the filters.
The inhibitory effect of a test compound (expressed as percentage of inhibition, % Inh.) was calculated using the following formula: […]
where Ro is the average retention of hybrids in the 16 identical control reactions in columns 1 and 7 and Rx is the hybrids retained in the presence of a test drug, x.
Biotinylated oligonucleotides 262.104 A (5′-biotin-TTAGGCACAGCTTGGAGGCTTGAACAGTG-3′) and 208.92 A (5′-biotin-CGTCATTGACGCTGCGCCCA-3′) were synthetically prepared (Oligos Etc., Willsonville, Oreg.). These oligonucleotides are complementary to regions of the εRNA and RRE RNA targets, respectively.
A plasmid containing the target sequence following the bacteriophage SP6 promoter was used as a template for the synthesis of radiolabeled εRNA using [α^32 P]-UTP and SP6 RNA polymerase as described by the suppliers, e.g., Ambion, Austin, Tex., and by methods well known to those of ordinary skill in the art.
Compounds that inhibited the primary screening assay described above were individually titrated in the same assay at concentrations between 0.1 μM and 200 μM in the absence and presence of 60-fold excess rRNA as a non-specific competitor. […]

[1] = radiolabeled εRNA, 60-fold excess rRNA competitor

In the case of `COc1ccccc1C=NNc1nc(NCc2ccccc2)nc(Nc2ccccc2)n1` [Compound 195], the IC50 [1] is reported as 28.2 µM and the Specificity is reported as “max”.
For `CN(C)c1nc(NCc2ccccc2)nc(NCc2cccs2)n1` [Compound 192], the IC50 [1] was 235 µM and the Specificity was “max”.
`Cc1ccc(Nc2nc(NN=Cc3ccccc3O)nc(Nc3ccc([N+](=O)[O-])cc3)n2)cc1C` [Compound 12] was tested, and the IC50 [1] was 2.6 µM and the Specificity was “max”.
With `COc1c(Br)cc(Br)cc1C=NNc1nc(Nc2ccccc2)nc(N2CCCCC2)n1` [Compound 14] the IC50 [1] was 7.1 µM and the Specificity was “max”.
With `COc1ccc(Nc2nc(NN=Cc3ccc(O)cc3O)nc(Nc3ccccc3)n2)cc1` [Compound 158] the IC50 [1] was 7.4 µM and the Specificity was “max”.
In the case of `CCN(CC)CCNc1ccc2c3c(cccc13)C(=O)N(Nc1nc(NCc3ccccc3)nc(N(CC)CC)n1)C2=O` [Compound 27], the IC50 [1] is reported as 15.5 µM and the Specificity is reported as “max”.
With `Cc1ccccc1Nc1nc(NN=Cc2ccc(I)cc2)nc(Nc2ccc([N+](=O)[O-])cc2)n1` [Compound 10] the IC50 [1] was 12 µM and the Specificity was “max”.
In the case of `Brc1cccc(C=NNc2nc(Nc3ccccc3)nc(N3CCOCC3)n2)c1` [Compound 163], the IC50 [1] is reported as 99 µM and the Specificity is reported as “max”.
With `COc1ccc(Nc2nc(NN=Cc3ccc(Cl)cc3)nc(Nc3ccccc3)n2)cc1` [Compound 22] the IC50 [1] was 3.6 µM and the Specificity was “max”.
For `Cc1ccc(Nc2nc(NN=Cc3cc(I)ccc3O)nc(Nc3ccccc3)n2)c(C)c1` [Compound 159], the IC50 [1] was 2.7 µM and the Specificity was “max”.
With `COc1ccc(Nc2nc(NN=Cc3ccc(OC)cc3OC)nc(Nc3ccccc3)n2)cc1` [Compound 20] the IC50 [1] was 11.7 µM and the Specificity was “max”.
For `Oc1ccc2ccccc2c1C=NNc1nc(Nc2cccc3ccccc23)nc(N2CCOCC2)n1` [Compound 167], the IC50 [1] was 50.9 µM and the Specificity was “max”.
In the case of `CCCCN(CCCC)c1nc(NN=Cc2ccc(Cl)cc2)nc(Nc2ccc([N+](=O)[O-])cc2)n1` [Compound 16], the IC50 [1] is reported as 12.1 µM and the Specificity is reported as “max”.
`CN(C)c1nc(NCc2ccccc2)nc(NN=Cc2ccc(Cl)cc2Cl)n1` [Compound 224] was tested, and the IC50 [1] was 60.1 µM and the Specificity was “max”.
In the case of `Cc1ccc(Nc2nc(NN=Cc3cccc(I)c3)nc(Nc3ccccc3)n2)cc1` [Compound 30], the IC50 [1] is reported as 25 µM and the Specificity is reported as “max”.
For `CCCCN(CCCC)c1nc(NN=Cc2ccc3c(c2)OCO3)nc(Nc2ccc([N+](=O)[O-])cc2)n1` [Compound 11], the IC50 [1] was 15 µM and the Specificity was “max”.
For `CCN(CC)c1nc(NN=Cc2ccc([N+](=O)[O-])cc2)nc(Nc2ccccc2)n1` [Compound 13], the IC50 [1] was 4.9 µM and the Specificity was “max”.
`COc1ccc(Nc2nc(NN=Cc3cc(Br)cc(Br)c3O)nc(N3CCOCC3)n2)cc1` [Compound 200] was tested, and the IC50 [1] was 12.1 µM and the Specificity was “max”.
In the case of `COc1ccc(Nc2nc(NN=Cc3ccc(O)cc3O)nc(N3CCOCC3)n2)cc1` [Compound 164], the IC50 [1] is reported as 48 µM and the Specificity is reported as “max”.
In the case of `Cc1ccc(Nc2nc(NN=Cc3cccc([N+](=O)[O-])c3)nc(Nc3ccccc3)n2)c(C)c1` [Compound 229], the IC50 [1] is reported as 4.4 µM and the Specificity is reported as “max”.
For `COc1c(C=NNc2nc(Nc3ccccc3)nc(Nc3ccccc3)n2)ccc(Br)c1O` [Compound 168], the IC50 [1] was 19.7 µM and the Specificity was “max”.
With `Ic1cccc(C=NNc2nc(Nc3ccc4ccccc4c3)nc(N3CCOCC3)n2)c1` [Compound 166] the IC50 [1] was 36.3 µM and the Specificity was “max”.
For `O=[N+]([O-])c1ccc(Nc2nc(NCc3ccccc3)nc(NN=Cc3ccccc3)n2)cc1` [Compound 24], the IC50 [1] was 10 µM and the Specificity was “max”.
With `Cc1ccc(Nc2nc(NN=Cc3ccccc3)nc(Nc3ccccc3)n2)c(C)c1` [Compound 7] the IC50 [1] was 2.4 µM and the Specificity was “max”.
For `Cc1ccc(C=NNc2nc(Nc3ccc([N+](=O)[O-])cc3)nc(Nc3ccccc3C)n2)cc1` [Compound 15], the IC50 [1] was 11 µM and the Specificity was “max”.
With `Cc1ccc(Nc2nc(Nc3cccc(C(F)(F)F)c3)nc(N3CCOCC3)n2)cc1C` [Compound 251] the IC50 [1] was 45 µM and the Specificity was “max”.
With `CC(=NNc1nc(Nc2ccccc2)nc(N2CCCC2)n1)c1ccc([N+](=O)[O-])cc1` [Compound 183] the IC50 [1] was 47.8 µM and the Specificity was “max”.
`FC(F)(F)c1cccc(Nc2nc(Nc3ccccc3)nc(N3CCOCC3)n2)c1` [Compound 21] was tested, and the IC50 [1] was 14.4 µM and the Specificity was “max”.
For `CCN(CC)c1nc(NCc2ccccc2)nc(N/N=C/c2ccccc2O)n1` [Compound 155, 2-hydroxybenzaldehyde N-[4-(benzylamino)-6-(diethylamino)-1,3,5-triazin-2-yl]hydrazone], the IC50 [1] was 25.5 µM and the Specificity was “max”.
With `Cc1ccc(Nc2nc(NCc3ccccc3)nc(NN=Cc3ccc(F)cc3F)n2)cc1C` [Compound 191] the IC50 [1] was 87 µM and the Specificity was “max”.
For `Cc1ccc(Nc2nc(NN=Cc3ccc(Cl)cc3)nc(N3CCOCC3)n2)cc1` [Compound 249], the IC50 [1] was 47.2 µM and the Specificity was “max”.
In the case of `Cc1ccc(Nc2nc(NCc3cc(F)ccc3F)nc(Nc3ccc([N+](=O)[O-])cc3)n2)cc1C` [Compound 248], the “HBV + rRNA IC50 (μM)” value [1] is reported as “inactive”.
With `Oc1c(Br)cc(Cl)cc1/C=N/Nc1nc(Nc2cccc(C(F)(F)F)c2)nc(N2CCOCC2)n1` [Compound 34] the IC50 [1] was 21 µM and the Specificity was “max”.
In the case of `CCCCN(CCCC)c1nc(NN=Cc2ccc(OCC)c(O)c2)nc(Nc2ccc([N+](=O)[O-])cc2)n1` [Compound 23], the IC50 [1] is reported as 5.7 µM and the Specificity is reported as “max”.
With `Cc1ccc(Nc2nc(NN=Cc3ccc(I)cc3)nc(Nc3ccccc3)n2)c(C)c1` [Compound 113] the IC50 [1] was 33.1 µM and the Specificity was 9.1.
With `Cc1cccc(C(=O)Oc2ccc(C=NNc3nc(N4CCCCC4)nc(N4CCCCC4)n3)cc2)c1` [Compound 181] the IC50 [1] was 60 µM and the Specificity was “max”.
Work on `C(=Cc1ccccc1)C=NNc1nc(Nc2ccccc2)nc(N2CCCC2)n1` [Compound 213] yielded an IC50 [1] of 15.6 µM and a Specificity of 33.3.
`O=C(NNc1nc(Nc2ccccc2)nc(Nc2cccc(C(F)(F)F)c2)n1)c1cccc(Br)c1` [Compound 220] showed an IC50 [1] of 27.6 µM and a Specificity of 33.3.
With `O=C(CSc1nc(SCC(=O)Nc2ccccc2C(F)(F)F)nc(SCC(=O)Nc2ccccc2C(F)(F)F)n1)Nc1ccccc1C(F)(F)F` [Compound 212] the IC50 [1] was 23.1 µM and the Specificity was “max”.
`Cc1ccc(Nc2nc(NCc3ccccc3)nc(NN=Cc3cc(Cl)ccc3O)n2)cc1C` [Compound 226] gave an IC50 [1] of 84.4 µM and a Specificity of 5.0.
With `Cc1ccc(Nc2nc(NCc3ccccc3)nc(Nc3ccc([N+](=O)[O-])cc3)n2)cc1C` [Compound 194] the IC50 [1] was 34 µM and the Specificity was “max”.
With `COc1ccc(Nc2nc(NCc3cccc([N+](=O)[O-])c3)nc(NCc3cc(F)ccc3F)n2)cc1OC` [Compound 225] the IC50 [1] was 193 µM and the Specificity was “max”.
For `COc1ccc(C=NNc2nc(NCc3ccccc3)nc(Nc3ccccc3)n2)cc1` [Compound 165], the IC50 [1] was 18.8 µM and the Specificity was “max”.
With `CCCCN(CCCC)c1nc(N/N=C/c2cc(I)cc(I)c2O)nc(Nc2ccc([N+](=O)[O-])cc2)n1` [Compound 8] the IC50 [1] was 4 µM and the Specificity was “max”.
For `CCN(CC)c1nc(NN=Cc2ccc(Cl)c([N+](=O)[O-])c2)nc(Nc2cc(C)ccc2C)n1` [Compound 214], the IC50 [1] was 42.6 µM and the Specificity was “max”.
In the case of `Oc1ccc(Br)cc1C=NNc1nc(Nc2cccc(C(F)(F)F)c2)nc(N2CCOCC2)n1` [Compound 246], the IC50 [1] is reported as 5.6 µM and the Specificity is reported as “max”.
